The numbers were not newly measured in article PMC7709506 (ESMO Open, 2020), which cites them from elsewhere.

Structures are written as SMILES.

For the series the following is noted: patients, phase I/II trial; cited from earlier work.

In the case of `CNC(=O)c1cccc2cc(Oc3ccnc4cc(OCC5(N)CC5)c(OC)cc34)ccc12` [lucitanib], the Hypertension is recorded as 91% and the “grade 3 hypertension events” value is 57%.
